Series [1] deals with S. aureus strain ATCC13709. Nature of the series: Antibacterial susceptibility (MIC) in CAMHB. The format is cell-based. The following applies: S. aureus ATCC 13709; cation adjusted Mueller-Hinton broth; 37° C., 18 h. Here is the method:
(§1) Susceptibility of S. aureus strain ATCC13709 to the commercial antibiotics and synthesized compounds was determined by following the guidelines set by the Clinical and Laboratory Standards Institute (formerly the National Committee for Clinical Laboratory Standards) (M26-A). Compounds were diluted two-fold serially in either DMSO (Vancomycin 4, Oritavancin 8, compounds 10, 31, 33, 39, 44, 50, 60, 65), DMF (compounds 18 and 21) or in PBS (compound 6) and transferred to cation-adjusted Mueller Hinton broth (CAMHB; Becton Dickinson). 50 μL of compounds diluted in CAMHB was mixed with […] of bacteria diluted in CAMHB in 96-well microtiter plates. The final number of micro-organisms in the assay was 5×10^5 c.f.u. per mL and the final concentration of DMSO or DMF in the assay, if present, was 1.25%. Assays were set up in duplicate and incubated at 37° C. for 18 h. The concentration of compound that inhibited visible growth was reported as the minimum inhibitory concentration (MIC).

Series [2] relates to S. aureus strain ATCC13709. The series is described as follows: Antibacterial susceptibility (MIC) in the presence of 50% serum. The format is cell-based. The following applies: S. aureus ATCC 13709. Here is the method: as §1
Susceptibility testing experiments were also carried out in the presence of serum. These experiments were carried out similar to the susceptibility testing with the following modifications. 75 μL of compounds diluted in CAMHB was mixed with 75 μL of bacteria diluted in 100% serum from any given source (commercial pooled mouse serum (MS) and human serum (HS), Equitech-Bio Inc.). The final concentration of animal serum in the assay was 50% and the concentrations of all other components were identical to those described for susceptibility testing.

The nature of series [3]: Regeneration of parent drug from bone powder-bound prodrug. The format is in vitro ADME. As to conditions: 24 h incubation, 37° C. The protocol:
Amounts of parent drug “regenerated” from the phosphonated prodrug were measured as follows. Washed bone powder-bound prodrugs from the above experiment were resuspended in 400 μL PBS+2% DMSO or in 400 μL 50% (v/v in PBS+2% DMSO) human or rat serum. The suspension was incubated overnight at 37° C., centrifuged at 13,000 rpm for 2 min and the supernatant was recovered. The amount of regenerated parent drug in the supernatant was determined by measurements using the microbiological assays that were previously described for the prodrugs themselves. The amount of released drug from prodrug was deduced from standard curves of known amounts of parent drug that were used as reference for each experiment. The amount of regenerated drug assessed by this bioassay was corroborated by MIC determination. The percentage of drug regenerated in PBS or serum after the overnight incubation (Table 2) was deduced from the difference between the amount of bound prodrug and the amount of regenerated drug (not shown).

Molecules are shown by their SMILES. ≈ marks a conversion by molar mass, not a printed value.

On to `CNC(CC(C)C)C(=O)NC1C(=O)NC(CC(N)=O)C(=O)NC2C(=O)NC3C(=O)NC(C(=O)NC(C(=O)OCC(=O)Nc4ccc(CC(P(=O)(O)O)P(=O)(O)O)cc4)c4cc(O)cc(O)c4-c4cc3ccc4O)C(O)c3ccc(c(Cl)c3)Oc3cc2cc(c3OC2OC(CO)C(O)C(O)C2OC2CC(C)(N)C(O)C(C)O2)Oc2ccc(cc2Cl)C1O` (centres unmarked) [Compound 21], for which, in series [1], the “Minimum inhibitory concentration, CAMHB” value was determined as 16 µg/mL (≈ 9.04 µM). In series [2], the “Minimum inhibitory concentration, CAMHB + 50% Human Serum” value stood at 16 µg/mL; the “Minimum inhibitory concentration, CAMHB + 50% Mouse Serum” value worked out at 16 µg/mL; the “Minimum inhibitory concentration, CAMHB + 50% Rat Serum” value was 32 µg/mL. Besides, the “% Conversion (prodrug converted to parent drug)” value (from here on “% Conversion”) in series [3] (50% human serum) is 3.5%. Moreover, the “% Conversion” value in series [3] (50% rat serum) is given as 4.1%. Besides, the “% Conversion” value in series [3] (PBS) was determined as 3.5%.

Consider `CNC(CC(C)C)C(=O)NC1C(=O)NC(CC(N)=O)C(=O)NC2C(=O)NC3C(=O)NC(C(=O)NC(C(=O)OCC(=O)NC(P(=O)(O)O)P(=O)(O)O)c4cc(O)cc(O)c4-c4cc3ccc4O)C(O)c3ccc(c(Cl)c3)Oc3cc2cc(c3OC2OC(CO)C(O)C(O)C2OC2CC(C)(N)C(O)C(C)O2)Oc2ccc(cc2Cl)C1O` (centres unmarked) [Compound 18], for which, in series [1], the “Minimum inhibitory concentration, CAMHB” value was 16 µg/mL (≈ 9.52 µM). Also, the “Minimum inhibitory concentration, CAMHB + 50% Human Serum” value in series [2] amounted to 8 µg/mL. In addition, the “Minimum inhibitory concentration, CAMHB + 50% Mouse Serum” value in series [2] is 16 µg/mL. In addition, the “Minimum inhibitory concentration, CAMHB + 50% Rat Serum” value in series [2] amounted to 32 µg/mL. Further, the “% Conversion” value was found to be 2.34% in series [3] (50% human serum), 2.58% in series [3] (50% rat serum) and 2.09% in series [3] (PBS).

In the case of `CC(C)C[C@H](C(=O)N[C@H]1C(=O)N[C@@H](CC(N)=O)C(=O)N[C@H]2C(=O)N[C@H]3C(=O)N[C@H](C(=O)N[C@H](C(=O)O)c4cc(O)cc(O)c4-c4cc3ccc4O)[C@H](O[C@H]3C[C@](C)(N)[C@@H](O)[C@H](C)O3)c3ccc(c(Cl)c3)Oc3cc2cc(c3O[C@@H]2O[C@H](CO)[C@@H](O)[C@H](O)[C@H]2O[C@H]2C[C@](C)(NCc3ccc(-c4ccc(Cl)cc4)cc3)[C@@H](O)[C@H](C)O2)Oc2ccc(cc2Cl)[C@H]1O)N(C)C(=O)OCOC(=O)CCC(P(=O)(O)O)P(=O)(O)O.O=C(O)C(F)(F)F.O=C(O)C(F)(F)F` [Compound 65], the “Minimum inhibitory concentration, CAMHB” value in series [1] worked out at 8 µg/mL. Moreover, in series [2], the “Minimum inhibitory concentration, CAMHB + 50% Human Serum” value stood at 4 µg/mL; the “Minimum inhibitory concentration, CAMHB + 50% Mouse Serum” value was 0.5 µg/mL; the “Minimum inhibitory concentration, CAMHB + 50% Rat Serum” value came to 1 µg/mL. Further, the “% Conversion” value in series [3] (50% rat serum) was determined as 26.4%. For the same compound, the “% Conversion” value in series [3] (PBS) is given as 0.2%.

Take `CC(C)C[C@H](C(=O)N[C@H]1C(=O)N[C@@H](CC(N)=O)C(=O)N[C@H]2C(=O)N[C@H]3C(=O)N[C@H](C(=O)N[C@H](C(=O)O)c4cc(O)cc(O)c4-c4cc3ccc4O)[C@H](O[C@H]3C[C@](C)(N)[C@@H](O)[C@H](C)O3)c3ccc(c(Cl)c3)Oc3cc2cc(c3O[C@@H]2O[C@H](CO)[C@@H](O)[C@H](O)[C@H]2O[C@H]2C[C@](C)(NCc3ccc(-c4ccc(Cl)cc4)cc3)[C@@H](O)[C@H](C)O2)Oc2ccc(cc2Cl)[C@H]1O)N(C)C(=O)OCOC(=O)CCCC(P(=O)(O)O)P(=O)(O)O` [Compound 60]: the “Minimum inhibitory concentration, CAMHB” value in series [1] stood at 32 µg/mL (≈ 15.2 µM). In addition, in series [2], the “Minimum inhibitory concentration, CAMHB + 50% Human Serum” value was over 32 µg/mL; the “Minimum inhibitory concentration, CAMHB + 50% Mouse Serum” value was determined as 32 µg/mL; the “Minimum inhibitory concentration, CAMHB + 50% Rat Serum” value came to 32 µg/mL. In addition, the “% Conversion” value in series [3] (50% rat serum) was found to be 0.05%. For the same compound, in series [3] (PBS), the “% Conversion” value is “<LOD”.

As to `CC(C)C[C@H](C(=O)N[C@H]1C(=O)N[C@@H](CC(N)=O)C(=O)N[C@H]2C(=O)N[C@H]3C(=O)N[C@H](C(=O)N[C@H](C(=O)O)c4cc(O)cc(O)c4-c4cc3ccc4O)[C@H](O[C@H]3C[C@](C)(N)[C@@H](O)[C@H](C)O3)c3ccc(c(Cl)c3)Oc3cc2cc(c3O[C@@H]2O[C@H](CO)[C@@H](O)[C@H](O)[C@H]2O[C@H]2C[C@](C)(NCc3ccc(-c4ccc(Cl)cc4)cc3)[C@@H](O)[C@H](C)O2)Oc2ccc(cc2Cl)[C@H]1O)N(C)C(=O)CCC(P(=O)(O)O)P(=O)(O)O` [Compound 39], the “Minimum inhibitory concentration, CAMHB” value in series [1] was over 32 µg/mL. Further, in series [2], the “Minimum inhibitory concentration, CAMHB + 50% Human Serum” value is over 32 µg/mL; the “Minimum inhibitory concentration, CAMHB + 50% Mouse Serum” value is over 32 µg/mL; the “Minimum inhibitory concentration, CAMHB + 50% Rat Serum” value was over 32 µg/mL. Moreover, the “% Conversion” value in series [3] (50% rat serum) is recorded as 0.9%. The “% Conversion” value in series [3] (PBS) was found to be 0.01%.
